Data taken from patent US20220117938A1, “COMBINATON THERAPY WITH A DON PRODRUG AND AN IMMUNE CHECKPOINT INHIBITOR” (DRACEN PHARMACEUTICALS, INC., priority 2019, published 2022).

Test system: CT26.WT tumors
Test: Anti-tumor efficacy of Compound 1 with and without anti-PD-1 in the CT26.WT murine colorectal model (Example 2B)
Type: in vivo, Mus musculus
Details: for Tumor volume (mm^3), Mean ± SEM: n = 8; for ILS (%) / MST: endpoint tumor volume 2000 mm^3; for RTV at day 15 / T/C (%) / TGI (%) / Tumor Size (mm^3) at day 15, Mean ± SEM: day 15
Description: Female BALB/c mice were inoculated subcutaneously at right flank with CT26.WT cells for tumor development. Five days after tumor inoculation, 48 mice with tumor size ranging from 39-61 mm^3 (average tumor size 49 mm^3) were selected and assigned into 6 groups using stratified randomization with 8 mice per group based upon their tumor volumes. The treatments were started from the day of randomization (defined as D0), Group 1 was treated with Vehicle (Tween 80:Ethanol:Saline—5:5:90 v/v/v), s.c. q.d.×14, Group 2 was treated with anti-PD-1 10 mg/kg i.p. q4d×4, Group 3 was treated with Compound 1 3 mg/kg s.c. q.d.×5D followed by 1 mg/kg s.c. q.d.×9D, Group 4 was treated with Compound 1 3 mg/kg s.c. q.d.×5D followed by 1 mg/kg s.c. q.d.×9D+anti-PD-1 10 mg/kg i.p. q4d×4, Group 5 was treated with Compound 1 1 mg/kg s.c. q.d.×14D and Group 6 was treated with Compound 1 1 mg/kg s.c. q.d.×14D+anti-PD-1 10 mg/kg i.p. q4d×4. The tumor sizes were measured three times per week during the treatment. The entire study was terminated on D64 after start of the treatment.
Animal Species: Mus musculus; Strain: BALB/c; Age: 6-8 weeks; Sex: female; Body weight (at treatment start): 20-24 g.
The CT26.WT tumor cells (ATCC, Cat #CRL-2638™) were maintained in vitro as a monolayer culture in RPMI 1640 medium supplemented with 10% heat inactivated fetal bovine serum, 100 U/mL penicillin and 100 μg/mL streptomycin, and L-glutamine (2 mM) at 37° C. in an atmosphere of 5% CO2 in air. The tumor cells were routinely subcultured twice weekly by trypsin-EDTA treatment. The cells growing to a confluency around 70%-80% were harvested and counted for tumor inoculation. The cultured CT26.WT cells were harvested, re-suspended in base medium with viability>90%. Each mouse was inoculated subcutaneously at the right flank with 3×10^5 in 0.05 ml base medium for tumor development.
The treatments were started on day 5 after tumor inoculation when the tumor size reached 39-61 mm^3 (average tumor size 49 mm^3). Each group consisted of 8 tumor bearing mice. The testing article was administrated at the dosing volume indicated to the mice according to the predetermined regimen as shown Table 2B-1. Testing article formulations were prepared according to standard procedures. Details regarding tumor measurements and endpoints, and statistical analysis are provided in EXAMPLE 3.
Tumor sizes were measured three times a week in two dimensions using a caliper, and the volume expressed in mm^3 using the formula: V=0.5 a×b^2 where a and b are the long and short diameters of the tumor, respectively. The tumor sizes were then used for the calculations of both tumor growth inhibition (TGI) and T/C values.
TGI is calculated for each group using the formula: […]
TVTreatment_DayN is the average tumor volume of a treatment group on a given day, TVTreatment_Day0 is the average tumor volume of the treatment group on the first day of treatment, TVVehicle_DayN is the average tumor volume of the vehicle control group on a given day, and TVVehicle_Day0 is the average tumor volume of the vehicle group on the first day of treatment.
The T/C value (in percent) is an indication of antitumor effectiveness, T/C (%)=RTVTreatment/RTVControl×100% (RTVTreatment: the mean RTV of the treatment group; RTVControl: the mean RTV of the vehicle treated group). RTV (relative tumor volume)=TVDayN/TVDay0. TVDayN and TVDay0 is the tumor volume on day N and Day 0 respectively. T/C (%)≤42% is considered as significant antitumor activity and <10% is considered as highly significant antitumor activity by the National Cancer Institute criteria.
Animal survival curve: When an individual animal reached to the termination endpoint (TV>2000 mm^3), the mouse was euthanized. The time from treatment initiation to the termination was deemed as its survival time. Survival curve was plotted by Kaplan-Meier method. Median survival time (MST) was calculated for each group. Increase of life span (ILS) was calculated according to the following formula: […]

Compound: CC(=O)N[C@@H](Cc1c[nH]c2ccccc12)C(=O)N[C@@H](CCC(=O)C=[N+]=[N-])C(=O)OC(C)C [Compound 1, Isopropyl (S)-2-((S)-2-acetamido-3-(1H-indol-3-yl)propanamido)-6-diazo-5-oxohexanoate]
- Tumor volume (mm^3), Mean ± SEM (1 mg/kg qdx14 s.c., Day 0): 49 ± 2 mm^3
- Tumor volume (mm^3), Mean ± SEM (1 mg/kg qdx14 s.c., Day 3): 68 ± 6 mm^3
- Tumor volume (mm^3), Mean ± SEM (1 mg/kg qdx14 s.c., Day 6): 92 ± 8 mm^3
- Tumor volume (mm^3), Mean ± SEM (1 mg/kg qdx14 s.c., Day 8): 104 ± 9 mm^3
- Tumor volume (mm^3), Mean ± SEM (1 mg/kg qdx14 s.c., Day 10): 112 ± 9 mm^3
- Tumor volume (mm^3), Mean ± SEM (1 mg/kg qdx14 s.c., Day 13): 156 ± 18 mm^3
- Tumor volume (mm^3), Mean ± SEM (1 mg/kg qdx14 s.c., Day 15): 186 ± 21 mm^3
- Tumor volume (mm^3), Mean ± SEM (3 mg/kg qdx5 then 1 mg/kg qdx9 s.c., Day 0): 49 ± 2 mm^3
- Tumor volume (mm^3), Mean ± SEM (3 mg/kg qdx5 then 1 mg/kg qdx9 s.c., Day 3): 54 ± 2 mm^3
- Tumor volume (mm^3), Mean ± SEM (3 mg/kg qdx5 then 1 mg/kg qdx9 s.c., Day 6): 65 ± 3 mm^3
- Tumor volume (mm^3), Mean ± SEM (3 mg/kg qdx5 then 1 mg/kg qdx9 s.c., Day 8): 139 ± 14 mm^3
- Tumor volume (mm^3), Mean ± SEM (3 mg/kg qdx5 then 1 mg/kg qdx9 s.c., Day 10): 180 ± 20 mm^3
- Tumor volume (mm^3), Mean ± SEM (3 mg/kg qdx5 then 1 mg/kg qdx9 s.c., Day 13): 224 ± 25 mm^3
- Tumor volume (mm^3), Mean ± SEM (3 mg/kg qdx5 then 1 mg/kg qdx9 s.c., Day 15): 333 ± 41 mm^3
- ILS (%) (Compound 1 1 mg/kg): 40%
- MST (Compound 1 1 mg/kg): 28 days
- ILS (%) (Compound 1 3/1 mg/kg): 35%
- MST (Compound 1 3/1 mg/kg): 27 days
- RTV at day 15 (Cpd. 1 1 mg/kg): 3.84 ± 0.43
- T/C (%) (Cpd. 1 1 mg/kg): 15.23%
- TGI (%) (Cpd. 1 1 mg/kg): 188.18%
- Tumor Size (mm^3) at day 15, Mean ± SEM (Cpd. 1 1 mg/kg): 186 ± 21 mm^3
- RTV at day 15 (Cpd. 1 3/1 mg/kg): 4.79 ± 0.69
- T/C (%) (Cpd. 1 3/1 mg/kg): 19.00%
- TGI (%) (Cpd. 1 3/1 mg/kg): 84.90%
- Tumor Size (mm^3) at day 15, Mean ± SEM (Cpd. 1 3/1 mg/kg): 224 ± 25 mm^3
